What was measured:
ΔFosB = assay: Western blot of ΔFosB in brain regions, chronic cocaine ± 5-MeO-DMT; assay type: in vivo, Male Wistar rats
Excerpt: (§1) Male Wistar rats aged 7 weeks were acclimatized to the facility for 1 week prior to the beginning of the study. […] Animals were euthanized 23- or 119-hours following vehicle or 5-MeO-DMT administration.
(§2) Following euthanasia brain regions of interest were isolated. Briefly, the olfactory bulbs were removed before the brain was placed in a rat brain matrix (FIG. 2A). Sterile blades were inserted at positions 2 and 3 (FIG. 2B) to extract a coronal slice containing the Bregma+˜0.2-+˜2.2 coordinates (FIG. 2C). From this tissue slice a blunted 12 G needle was used to punch dissect the NAc and dorsal striatum (DS) (FIG. 2D-2E) identified using the rat brain atlas (Panxinos and Watson 2nd edition). The PFC, hippocampus (Hip) and amygdala (Amyg) were then blunt dissected (FIG. 3A-3D). All regions were frozen in liquid nitrogen and stored at −80° C. until processed.
(§3) These treatment groups were used for the molecular assessment of addiction-linked markers.
(§4) Determination of protein concentration—a bicinchoninic acid assay (BCA, ThermoFisher) was conducted to determine the total protein concentration in tissue lysates following manufacturer's instructions. Briefly, bovine serum albumin (BSA) standards were prepared in a serial dilution (0-2.0 mg protein/ml) and 200 μl working reagent (50:1, reagent A: reagent B) was added to each of the standards and samples in a 96 well plate (Greiner). For tissue lysates a 1:10 dilution was performed with cell lysis buffer to ensure absorbance values lay within the working range established by the standards. All samples and standards were added in duplicate. The plate was covered and incubated for 30 mins at 37° C. before absorbance was read at 562 nm on a plate reader (SpectraMax M3). The absorbance values were used to form a standard curve of known protein concentrations and protein concentration of samples were derived using the equation of the line. All samples were standardized to the lowest protein concentration using distilled H20 (dH2O).
(§5) SDS-PAGE and Western Blotting—Following equalisation of protein concentrations, 6× sample loading buffer (15% SDS, 15% […], 50% glycerol, 0.01% bromophenol blue, […]) was added to each sample using a dilution factor of 1:5 of the total volumes before boiling at 100° C. for 5 mins. Samples were stored at −20° C. until use. One dimensional sodium-dodecyl-sulphate polyacrylamide gel electrophoresis (SDS-PAGE) was used for protein separation based on molecular weight. The percentage of acrylamide in the resolving or stacking gel was determined by the molecular weight of the protein of interest. In this instance all gels consisted of a 5% stacking gel and a 10% resolving gel with the exception of mGluR5, G9a (8%) and H3K9Me2 (12%). 20 μg of protein was loaded and resolved using SDS-PAGE. Gel electrophoresis was conducted at 80V while the protein was in the stacking gel, once it migrated to the resolving gel the voltage was increased to 120V and ran for 90 mins. Samples were transferred to a 0.45 μm polyvinylidene difluoride (PVDF) membrane (Analab) for 1 hour at 100V and blocked in 5% milk blocking solution made in tris-buffered saline containing tween®-20 (TBS-T, Sigma) for 90 mins. Primary antibodies (FIG. 5) were diluted in 5% BSA in TBS-T and incubated with membranes overnight at 4° C. or for 2 hours at room temperature. After incubation with primary antibodies the membranes were washed in TBS-T for 4×10 minutes before incubation with 1:2000 anti-rabbit and 1:2000 anti-mouse Alexa Fluro® conjugated secondary antibodies (Invitrogen) in 2% milk for 1 hour at room temperature. Membranes were washed in TBS-T for 4×10 minutes and in TBS for 1×10-minute wash. Proteins were visualized using Odyssey® infrared imaging system. Protein expression was quantified using Image Studio Lite (Version 5.2) and expression intensities were normalized to a house keeping protein, α-Tubulin or β-actin.

BDNF = assay: Western blot of BDNF in brain regions, chronic cocaine ± 5-MeO-DMT; assay type: in vivo, Male Wistar rats; settings: for BDNF expression: 24 h; for BDNF levels: 120 h
Excerpt: as §1, §2, §3, §4, §5

pCREB = assay: Western blot of pCREB in brain regions, chronic cocaine ± 5-MeO-DMT; assay type: in vivo, Male Wistar rats; settings: for pCREB levels: 24 h
Excerpt: as §1, §2, §3, §4
SDS-PAGE and Western Blotting—Following equalisation of protein concentrations, 6× sample loading buffer (15% SDS, 15% […], 50% glycerol, 0.01% bromophenol blue, […]) was added to each sample using a dilution factor of 1:5 of the total volumes before boiling at 100° C. for 5 mins. Samples were stored at −20° C. until use. One dimensional sodium-dodecyl-sulphate polyacrylamide gel electrophoresis (SDS-PAGE) was used for protein separation based on molecular weight. The percentage of acrylamide in the resolving or stacking gel was determined by the molecular weight of the protein of interest. […] Protein expression was quantified using Image Studio Lite (Version 5.2) and expression intensities were normalized to a house keeping protein, α-Tubulin or β-actin.

5-HT1AR = settings: canonical signaling activity measured; read-out: affinity (Ki) for the 5-HT1AR subtype; cited from earlier work
cerebral organoids = settings: 5-MeO-DMT treated cerebral organoids; cited from earlier work
[1] = test system: MAO-A and cytochrome P450 2D6 (CYP2D6); settings: cited from earlier work
[2] = acute administration in animals; cited from earlier work
G9a = settings: repeated cocaine; cited from earlier work
H3K9Me2 = settings: repeated cocaine; cited from earlier work

COc1ccc2[nH]cc(CCN(C)C)c2c1 [5-MeO-DMT, 5-methoxy-N,N-dimethyltryptamine]
ΔFosB expression (ΔFosB; PFC, 24 h, cocaine alone or 5-MeO-DMT alone): Neither treatment changes expression alone
ΔFosB expression (ΔFosB; PFC, 24 h, cocaine+10 mg/kg 5-MeO-DMT): increases expression relative to 10 mg/kg 5-MeO-DMT alone
ΔFosB expression (ΔFosB; PFC, 24 h, cocaine+20 mg/kg 5-MeO-DMT (increase seen with 10 mg/kg)): not replicated
ΔFosB expression (ΔFosB; amygdala, 24 h, 5-MeO-DMT alone): no effect
ΔFosB expression (ΔFosB; amygdala, 24 h, cocaine+20 mg/kg 5-MeO-DMT): normalized levels in the cocaine treated animals comparable to the control group
ΔFosB expression (ΔFosB; amygdala, 120 h, 20 mg/kg 5-MeO-DMT relative to control): dose-dependent increase
ΔFosB expression (ΔFosB; dorsal striatum, 24 h, 5-MeO-DMT alone): does not regulate the expression
ΔFosB expression (ΔFosB; dorsal striatum, 24 h, cocaine+10 mg/kg 5-MeO-DMT relative to control): significant increase in ΔFosB expression
ΔFosB expression (ΔFosB; dorsal striatum, 24 h, cocaine+20 mg/kg 5-MeO-DMT): returns the cocaine-induced increase in ΔFosB to levels comparable with control
ΔFosB expression (ΔFosB; dorsal striatum, 120 h, irrespective of the treatment group): no change in expression levels
ΔFosB expression (ΔFosB; nucleus accumbens, 24 h, cocaine+20 mg/kg 5-MeO-DMT): expression levels remain elevated in the combo group relative to control
ΔFosB expression (ΔFosB; nucleus accumbens, 24 h, saline+10 mg/kg 5-MeO-DMT): increased
ΔFosB expression (ΔFosB; nucleus accumbens, 24 h, saline+20 mg/kg 5-MeO-DMT): increased
ΔFosB expression (ΔFosB; nucleus accumbens, 120 h, 5-MeO-DMT alone): does not persist to 120 hours
BDNF expression (BDNF; PFC, cocaine+10 mg/kg 5-MeO-DMT relative to saline+vehicle): significant decrease in BDNF expression
BDNF expression (BDNF; PFC, cocaine+20 mg/kg 5-MeO-DMT relative to saline+vehicle): significant decrease in BDNF expression
BDNF expression (BDNF; hippocampus, any of the treatment groups): no change in BDNF expression
BDNF levels (BDNF; hippocampus, 10 mg/kg 5-MeO-DMT alone): no effect alone
BDNF levels (BDNF; hippocampus, 20 mg/kg 5-MeO-DMT alone): significant decrease in BDNF levels
BDNF levels (BDNF; hippocampus, cocaine+10 mg/kg 5-MeO-DMT): does not affect the cocaine-induced decrease in expression levels
BDNF levels (BDNF; hippocampus, cocaine+20 mg/kg 5-MeO-DMT): restores BDNF levels to those seen in the control group
pCREB levels (pCREB; PFC, cocaine+20 mg/kg 5-MeO-DMT relative to saline+20 mg/kg): decrease in pCREB
proportion of pCREB relative to total CREB (pCREB; PFC, 24 h and 120 h, all treatments): no change
pCREB levels (pCREB; amygdala, 20 mg/kg 5-MeO-DMT in saline-treated animals): increased
proportion of pCREB (pCREB; amygdala, 24 h and 120 h, any of the treatments): unchanged by any of the treatments
Ki (5-HT1AR): < 10 nM
mGluR5 receptor expression (cerebral organoids): decrease in mGluR5 receptor expression
primary metabolic pathways [1]: deamination by MAO-A and O-demethylation by cytochrome P450 2D6 (CYP2D6)
acute toxic signs [2]: dose-dependently produce ataxia, mydriasis, head nodding, tremor, convulsion and shivering

COC(=O)[C@H]1[C@@H](OC(=O)c2ccccc2)C[C@@H]2CC[C@H]1N2C.Cl [cocaine, cocaine hydrochloride, reference compound]
reduction in G9a expression (G9a): 19%
decrease in H3K9Me2 expression (H3K9Me2): 15%
